Where no end group is shown, it is not given here. [ ]: non-standard residue; d: D form. lysine‑palmitate = lysine-palmitate bound at the N-terminal end; pY = N[C@@H](Cc1ccc(OP(=O)(O)O)cc1)C(=O)O
Tests used:
diabetic mice (db/db) [1] = experiment: Electroretinogram (ERG) recordings, topical eye drops; format: in vivo; conditions: eye drops 15 days
Description: 8-week old diabetic mice (db/db) received the miS1 peptide in the form of eye drops (5 μL drops in each eye; 10 mg/mL; twice a day for 15 days; n=7 mice). Diabetic mice treated with the non-functional peptide Mut (n=7), treated with vehicle and non-diabetic mice (db/+) were used as controls. The eye drops were directly administered on the upper surface of the cornea of each eye using a micropipette. The weight and glycemia (colorimetric assay) were controlled throughout the study period. On day 15, the drop with the miS1 peptide or vehicle was administered about two hours before autopsy. […]
Electroretinogram (ERG) recordings were performed in darkness-adapted anesthetized mice (12 hours overnight). Focal electroretinogram (Ferg) recordings were measured using a Micron III Focal ERG system (Phoenix Research Labs, Pleasanton, Calif.). […] The ERG responses of both eyes were recorded in response to 20 ms white light stimuli. […] The ERG signals were amplified, the filtered band was between 0.5 and 1000 Hz, and was analyzed with LabScribe-2 software (BioSeb, Vitrolles, France) in order to calculate the a-wave and b-wave amplitude and implicit time, as recommended by the International Society of Clinical Electrophysiology of Vision (ISCEV) (Marmor et al Doc Ophtalmol 108: 107 a 144). […]

diabetic mice (db/db) [2] = experiment: Retinal IL-1β mRNA expression by RT-PCR; format: in vivo; conditions: eye drops 15 days, retina mRNA RT-PCR
Description: 8-week old diabetic mice (db/db) received the miS1 peptide in the form of eye drops (5 μL drops in each eye; 10 mg/mL; twice a day for 15 days; n=7 mice). Diabetic mice treated with the non-functional peptide Mut (n=7), treated with vehicle and non-diabetic mice (db/+) were used as controls. The eye drops were directly administered on the upper surface of the cornea of each eye using a micropipette. The weight and glycemia (colorimetric assay) were controlled throughout the study period. On day 15, the drop with the miS1 peptide or vehicle was administered about two hours before autopsy. The animals were euthanized by cervical dislocation and the enucleated eyes were immediately frozen and dorsoventral sections of […] were cut for analyzing retinal morphology and other immunohistochemical analyses.
The expression of IL-1β, TNF-α and IL-6 was evaluated. The total RNA was extracted with RNeasy Mini Kit with DNAse digestion (QIAGEN, distributed by IZASA, Barcelona, Spain) according to manufacturer's instructions. The RNA (1 μg) was used for reverse transcription with random hexanucleotide primers and Applied Biosystems reagents (Applied Biosystems, Madrid, Spain) in a reaction volume of 20 μl. […] The ΔΔCt method was used for obtaining the relative quantification (RQ).

diabetic mice (db/db) [3] = experiment: Disruption of the blood-retinal barrier, albumin extravasation; format: in vivo; conditions: eye drops 50 μg in 5 μL/eye twice a day, 15 days
Description: 8-week old diabetic mice (db/db) received the miS1 peptide in the form of eye drops (5 μL drops in each eye; 10 mg/mL; twice a day for 15 days; n=7 mice). Diabetic mice treated with vehicle (n=7) and non-diabetic mice (db/+) (n=7) were used as controls. The weight and glycemia (colorimetric assay) were controlled throughout the study period. The animals were euthanized on day 15 by cervical dislocation. The disruption of the BRB was evaluated by means of determining albumin permeability.
The paraffin sections were deparaffinized in xylene and rehydrated in a gradual series of ethanol. The sections were fixed in acidic methanol (−20° C.) for 1 minute and washed with 0.01 M PBS solution at pH 7.4. The sections were incubated in a blocking solution (2.5% dry, non-fat milk) for 30 minutes at room temperature. The sections were incubated with a goat anti-human serum albumin primary antibody (1:500, Abcam) overnight at 4° C. After one washing in PBS, the sections were incubated with an Alexa 594 donkey anti-goat secondary antibody (1:200, Molecular Probes) for 1 hour at room temperature. […] The immunofluorescence of albumin was analyzed by means of laser confocal microscopy (Olympus FluoView™ FV1000 confocal microscope, Hamburg, Germany).

STAT3 [4] = experiment: Renal phosphorylated STAT3 immunodetection in diabetic mice; format: in vivo; conditions: STZ apoE mice, i.p. 8 weeks; kidney sections, vs vehicle
Description: Apolipoprotein E (apoE)-deficient male mice of 8 weeks of age were made diabetic through streptozotocin injection (125 mg/kg weight in 10 mM citrate, pH 4.5, two consecutive days). After 2 weeks, animals with glycemia greater than 350 mg/dL were randomly distributed in two groups (n=9 animals per group): treated animals (miS1 peptide: 65 μg/day, 200 μL, intraperitoneally, every 2 days for 8 weeks) and controls (vehicle). The weight and glycemia (colorimetric assay) were controlled throughout the study period.

STAT1 [5] = experiment: STAT1 activation in cytokine-stimulated macrophages (Western blot); format: cell-based, murine; conditions: pre-incubation 50-150 ug/mL (Mut 150 ug/mL), IFNγ and IL-6 stimulation
Description: (§1) RAW264.7 macrophages and vascular smooth muscle cells (VSMC) cultured in a medium with 10% fetal bovine serum were used. The cells were synchronized (24 hours without serum), pre-incubated for 90 minutes with different peptide concentrations (miS1 or the control thereof, 50-150 μg/mL) and stimulated with cytokines (IFNγ […]). STAT activation was analyzed by means of Western blot for phosphorylated STAT1/STAT3 isoforms. JAK/STAT pathway-dependent chemokine (CCL2) expression was determined by means of ELISA. Cell viability was analyzed by MTT colorimetric assay and macrophage migration was analyzed by chemotaxis assay.

STAT3 [6] = experiment: STAT3 activation in cytokine-stimulated macrophages (Western blot); format: cell-based, murine; conditions: pre-incubation 50-150 ug/mL (Mut 150 ug/mL), IFNγ and IL-6 stimulation
Description: as §1

STAT1 [7] = experiment: STAT1 activation in cytokine-stimulated VSMC; format: cell-based, mouse; conditions: IFNγ and IL-6 stimulation, immunofluorescence images
STAT3 [8] = experiment: STAT3 activation in cytokine-stimulated VSMC; format: cell-based, mouse; conditions: IFNγ and IL-6 stimulation, immunofluorescence images
[9] = test system: vascular smooth muscle cells (VSMC); experiment: Cytokine-induced CCL2 production in VSMC (ELISA); format: cell-based, mouse; conditions: pre-incubation with peptide, IFNγ and IL-6
Description: as §1

RAW264.7 macrophages = experiment: Macrophage migration chemotaxis assay; format: cell-based, murine; conditions: chemotaxis assays
Description: as §1

miS1: SEQ ID NO 1 DTHFRTFRSHSDYRRI, kinase inhibitory region of murine SOCS1, bound to lysine-palmitate at the N-terminal end, tyrosine phosphorylated ({lysine‑palmitate}-DTHFRTFRSHSD[pY]RRI)
ERG a-wave and b-wave implicit time (diabetic mice (db/db) [1]; diabetes-induced increase): declines | ERG a-wave and b-wave amplitude (diabetic mice (db/db) [1]; diabetes-induced reduction): declines the reduction | IL-1β increase induced by diabetes (diabetic mice (db/db) [2]): prevented the increase | albumin extravasation (vascular permeability) (diabetic mice (db/db) [3]): prevented | renal STAT3 activation (STAT3 [4]): reduction | STAT1 activation (phosphorylation) (STAT1 [5]): reduced STAT1 and STAT3 activation in a dose-dependent manner | STAT3 activation (phosphorylation) (STAT3 [6]): reduced STAT1 and STAT3 activation in a dose-dependent manner | STAT1 activation (STAT1 [7]): prevented | STAT3 activation (STAT3 [8]): prevented | reduction of cytokine-induced CCL2 production [9]: 30-40% | macrophage migration (RAW264.7 macrophages): anti-migratory effect

Source: US10532082B2, “SOCS1-derived peptide for use in chronic complications of diabetes” (Fundació Hospital Universitari Vall d'Hebron-Institut de …, priority 2014, dated 2020)
